Test results as given in article PMC7477407, “In vivo studies of a peptidomimetic that targets EGFR dimerization in NSCLC” (Journal of Cancer, 2020).
Where two headings read alike, the source gives them in different places. Numbered stars: 1 amine (or outer) side, 2 acyl side, 3 side chain; on linkers, the order of the positions; unused ones are H or OH. Square brackets hold non-standard residues; d marks the D form. Peptide text beside a SMILES is read from it. βAla(3R-(1-naphthyl)) = O=C(C[C@@H](N[*:1])c1cccc2ccccc12)[*:2]

Columns and labels:
NCI-H1975 = conditions: read-out: IC50, antiproliferative activity in NCI-H1975; NCI-H1975 EGFR mutated NSCLC cell line
Protocol: (§1) In a 96-well plate, 1 × 10^4 cells/well were seeded and incubated overnight at 37 °C and 5% CO2. The stock solution of the peptidemimetic was prepared by dissolving them in DMSO. Stock solutions of the compound and controls were diluted using the serum-free medium to prepare solutions of different concentrations of compounds with DMSO concentration not exceeding 1% (v/v) in the final solution in each well of a 96-well plate. […] A dose-response curve was generated using percentage cell viability vs. log concentration of compounds, and IC50 values were obtained using Prism® (GraphPad Software). Experiments were repeated three times to obtain standard deviation values.
(§2) In vivo Studies of a Peptidomimetic that Targets EGFR
(§3) Leeza Shrestha1, Sitanshu Singh1, Pravin Parajuli1, Achyut Dahal1, George Mattheolabakis1,
(§4) Sharon Meyer1, Joydeep Bhattacharjee2, Seetharama Jois1*
(§5) 1School of Basic Pharmaceutical and Toxicological Sciences, College of Pharmacy, University
(§6) of Louisiana Monroe, Monroe, LA 71201.
(§7) 2Biology Program, School of Sciences, University of Louisiana Monroe, Monroe, LA 71029.

SKOV-3 = conditions: read-out: IC50, antiproliferative activity in SKOV-3; SKOV-3 ovarian cancer, HER2+
Protocol: as §1, §2, §3, §4, §5, §6, §7

[1] = system: phosphorylated HER2 protein (p-HER2); assay: Western blot of HER2 phosphorylation in A549 cells; format: cell-based, human; conditions: 2 µM, 36 h, Western blot densitometry
Protocol: (§8) A549 cells were treated with 2 µM 18 or 2 µM lapatinib (positive control). Cells without treatment were employed as a negative control. Cells were treated for 36 h, washed, and trypsinized. 35 μg of protein from each sample was loaded on Novex® 4-20% tris-glycine gels and transferred into nitrocellulose membranes. The membranes were blocked with 2% bovine serum albumin solution and incubated with primary antibodies overnight at 4 °C. Antibodies for the detection of total HER2 protein (t-HER2), phosphorylated HER2 protein (p-HER2), total AKT (t-AKT); (Cell Signaling Technology, phosphorylated AKT (P-Akt, S473); (Cell Signaling Technology) were used at 1:1000 dilution. Secondary antibodies with HRP conjugation was incubated for 1 h. After the addition of the substrate and enhancer solutions from a super signal enhanced chemiluminescence kit (Pierce, Rockford, IL) to the membrane, images were captured using ChemiDoc™ Touch Gel Imaging System (Bio-Rad), and band densities were quantified. A representative Western blot image was used for the final presentation. Data are from triplicates and are presented as the mean ± standard error of the mean (SEM). To evaluate the significance, statistical analysis was performed by a one-tail T-test using Prism Graph Pad (GraphPad Software, San Diego). P< 0.05 was considered statistically significant, [32].

[2] = system: phosphorylated AKT (P-Akt, S473); assay: Western blot of Akt phosphorylation in A549 cells; format: cell-based, human; conditions: 2 µM, 36 h, Western blot densitometry
Protocol: as §8

[3] = system: A549 Red-FLuc lung tumors; assay: Antitumor assessment, experimental metastasis lung cancer model, bioluminescence imaging; format: in vivo; conditions: 18 6 mg/kg, lapatinib 10 mg/kg, twice a week; A549-Red-FLuc lung tumors in nude mice
Protocol: All animal studies were conducted in accordance with NIH guidelines for care, and use of laboratory animals and protocols were approved by the Institutional Animal Care and Use Committee at the University of Louisiana Monroe. Bioware® Brite Cell Line A549 Red-FLuc cells that had been engineered to express firefly luciferase (Perkin Elmer) were injected into the tail vein (4.5 × 10^6 cells in 200 µl PBS per mouse) of 6-week-old Foxn1^nu-nude mice. For bioluminescence imaging, mice were anesthetized with 1-3% isoflurane and 150 mg/kg of D-luciferin (PerkinElmer) in phosphate-buffered saline (PBS) was given by intraperitoneal injection. 8 min after injection, bioluminescence was imaged with an IVIS Lumina III Series (PerkinElmer), and regions of interest (ROI) were drawn around the bioluminescent signals and quantified as photons/second (p/s). Mice with tumors were divided into three groups viz. control (vehicle), 18 treatment, and lapatinib treatment. After two weeks of the inoculation of tumor cells, mice from the respective groups were injected intravenously with 18 (6 mg/kg) or lapatinib (10 mg/kg) or vehicle twice a week for the next three weeks. To evaluate the effect of the treatments, tumors were imaged, and bioluminescence was measured once a week. […]

HER2 phosphorylation = assay: Western blot of HER2 phosphorylation in lung tumor tissue; format: in vivo, mice; conditions: tumors harvested day 35; 18 6 mg/kg, lapatinib 10 mg/kg
Protocol: as §8, with “Data are from triplicates and are presented as the mean ± standard error of the mean (SEM). To evaluate the significance, statistical analysis was performed by a one-tail T-test using Prism Graph Pad (GraphPad Software, San Diego). P< 0.05 was considered statistically significant, [32].” left out
All animal studies were conducted in accordance with NIH guidelines for care, and use of laboratory animals and protocols were approved by the Institutional Animal Care and Use Committee at the University of Louisiana Monroe. […] To evaluate the effect of the treatments, tumors were imaged, and bioluminescence was measured once a week. […]

EGFR:HER2 dimerization = target: T1, EGFR:HER2 dimerization (Homo sapiens, UniProt P04626); assay: Proximity ligation assay on lung tumor tissue, EGFR:HER2; format: in vivo, mice; conditions: 6 mg/kg, vs vehicle control
T1 construct: from tissue; host or cells: Lung tumour tissue of nude mice injected IV with A549-Red-FLuc human NSCLC cells
Protocol: (§9) The lung tissue samples with tumors were fixed on the slides. […] Antigen retrieval on the tissue section of slides was done in a steaming sodium citrate buffer (10 mM, 0.05% Tween 20, pH 6.0) for 15 min. Tissue slides were incubated with primary antibodies overnight at 4 °C and washed, and secondary antibodies PLA+ and PLA- were added. After incubation and washing, PLA detection reagents were added, [36]. The mounting medium was then added, and the slides were coverslipped. Slides were viewed using an Olympus BX63 fluorescence microscope fitted with deconvolution optics using DAPI, and Texas Red filters. Images were obtained at 40×.

HER2:HER3 dimerization = target: T2, HER2:HER3 dimerization (Homo sapiens, UniProt P04626); assay: Proximity ligation assay on lung tumor tissue, HER2:HER3; format: in vivo, mice; conditions: 6 mg/kg, vs vehicle control
T2 construct: from tissue; host or cells: Lung tumour tissue of nude mice injected IV with A549-Red-FLuc human NSCLC cells
Protocol: as §9

[4] = system: lung, heart, kidney, liver tissue; format: in vivo, mice; conditions: for Lung histology (H&E) compared to vehicle: day 35, 18 6 mg/kg, lapatinib 10 mg/kg
Protocol: For histopathological analysis, lungs, kidney, liver, heart, and pancreas were excised from the mice and fixed with 10% normal formalin solution. These fixed samples were embedded in paraffin, and slides were prepared by cutting them into 5 μm slices and mounting on the glass. Prepared slides were stained using hematoxylin and eosin (H&E) staining. Slides were visualized under a microscope (Nikon labophot 2. Type120) and pictures were taken at different magnifications for analysis. Representative pictures from histopathology analysis were used for presentation.

[5] = mouse, in vivo, iv
Protocol: (§10) Female Foxn1-nude, 6-7 week-old mice (Envigo) were used in all studies.
(§11) After administration of the compound, mice were sacrificed at certain time intervals (0, 0.25, 0.75, 2, 4, 6, 12 and 24 h), and blood samples were taken to study the amount of compound remaining in blood circulation. The samples were then centrifuged at 1000 rpm for 5 min. The separated supernatant serum samples were precipitated by acetonitrile to extract the analytes and passed through the Sep-Pak (Waters) column. Chromatographic separation was performed on an HPLC. Mass spectrometry was used to identify the correct molecular ion of the intact compound.
(§12) Blood samples were collected at different time intervals, and analysis of the sample was accomplished using HPLC and mass spectrometry. […] For pharmacokinetic parameter analysis, PKSolver software was used [50]. […] Based on the AIC, SC, and curve fitting by the PKSolver software, intravenous bolus administration/two compartmental model was selected for deriving our reported pharmacokinetic parameters.

A549 cells = conditions: read-out: IC50, antiproliferative activity in A549; A549 NSCLC, HER2+; 72 h, serum-free medium, CellTiter-Glo
Protocol: HER2 positive A549 lung cancer cell line was purchased from American Type Culture Collection (ATCC, Manassas, VA) and subcultured in RPMI media (ATCC) with 10% FBS. […] Cells were incubated in a humidified atmosphere of 5% CO2 at 37°C.

[6] = 25 to 80 °C, 18 μM
Protocol: Circular dichroism experiments were done using a Jasco J-815 CD Spectrometer (Jasco, Japan) at temperatures from 20 to 80 °C with a gradual 5 °C increase before reading. […] The spectra for samples were recorded from 185-350 nm wavelengths with a total of four scans for each temperature, and wavelength vs. ellipticity was plotted for an average of four scans.

[7] = mouse, in vivo, iv; remark: listed apart in the source
Protocol: as §10, §11, §12

[8] = target: human serum albumin (HSA) (Homo sapiens, UniProt P02768)
Protocol: Surface plasmon resonance analysis was performed in 0.01 M phosphate-buffered saline (NaCl 0.138 M; KCl -0.0027 M); Tween® 20 -0.05%, pH 7.4 using a Reichert Life Sciences System. Immobilization of HSA to the hydrophilic carboxymethylated dextran matrix of the CM5 sensor chip was carried out by the standard primary amine coupling method. […] All binding experiments were performed at a flow rate of 25 µL/min. After each interaction analysis, the sensor chip was regenerated with water. […] The Kd values were obtained using the 1:1 kinetic evaluation fitting tool of Tracedrawer software.

SKBR-3 = system: SKBR-3; set-up: method as in ref 20 (Kanthala et al. Oncotarget 8(43):74244-74262); conditions: SKBR-3 breast cancer, HER2+; ref 20 (Kanthala et al. Oncotarget 8(43):74244-74262); read-out: IC50, antiproliferative activity in SKBR-3; cited from earlier work
MCF-7 = MCF-7 breast cancer, HER2-; read-out: IC50, antiproliferative activity in MCF-7; cited from earlier work
MCF-10A = system: MCF-10A; set-up: method as in ref 20 (a number printed in a supplementary file, which may have a reference list of its own: not looked up in the article's list); conditions: MCF-10A non-cancerous breast cell line, basal HER2; read-out: IC50, antiproliferative activity in MCF-10A; cited from earlier work
HER2 expression = system: HER2 expression; set-up: method as in ref 20 (a number printed in a supplementary file, which may have a reference list of its own: not looked up in the article's list); conditions: HER2-positive breast cancer xenograft, 4 mg/kg IV; cited from earlier work
physchem = conditions: buffer, pH 1
From the text: Shimadzu FCV-20AH2 manual injector was used with Ultra C18, 5 µm (250 × 4.6 mm) column, Shimadzu SPD-20A UV/Vis detector, and Shimadzu LC-20AP pump. 40% acetonitrile (0.1% TFA) with 60% water (0.1% TFA) was used as mobile phase. Relative Peak area was plotted as % remaining compound with respect to time compared with zero time point, and data are from triplicate experiments. For pH stability, a buffer with pH 1 was obtained by adding 0.1 M HCl, and a buffer with pH 7.5 was obtained by adding 0.1 M PBS (Sigma).

in vitro [9] = conditions: simulated gi fluid
Protocol: (§13) Simulated intestinal fluid TS and simulated gastric fluid were purchased from Ricca Chemical (Arlington, TX). Pepsin (0.32 g/100 ml) was added to the simulated gastric fluid. To determine the effect of simulated gastric and intestinal fluids on 18, it (10µM) was incubated in gastric fluid with pepsin for 6 h and intestinal fluid for 12 h at 37 °C. Samples were taken at particular time intervals and analyzed using the HPLC method [33]. Methods used were similar to the methods explained above for HPLC analysis.

in vitro [10] = conditions: simulated gi fluid; remark: listed apart in the source
Protocol: as §13

Chain of human serum albumin (HSA) (P02768 25-609): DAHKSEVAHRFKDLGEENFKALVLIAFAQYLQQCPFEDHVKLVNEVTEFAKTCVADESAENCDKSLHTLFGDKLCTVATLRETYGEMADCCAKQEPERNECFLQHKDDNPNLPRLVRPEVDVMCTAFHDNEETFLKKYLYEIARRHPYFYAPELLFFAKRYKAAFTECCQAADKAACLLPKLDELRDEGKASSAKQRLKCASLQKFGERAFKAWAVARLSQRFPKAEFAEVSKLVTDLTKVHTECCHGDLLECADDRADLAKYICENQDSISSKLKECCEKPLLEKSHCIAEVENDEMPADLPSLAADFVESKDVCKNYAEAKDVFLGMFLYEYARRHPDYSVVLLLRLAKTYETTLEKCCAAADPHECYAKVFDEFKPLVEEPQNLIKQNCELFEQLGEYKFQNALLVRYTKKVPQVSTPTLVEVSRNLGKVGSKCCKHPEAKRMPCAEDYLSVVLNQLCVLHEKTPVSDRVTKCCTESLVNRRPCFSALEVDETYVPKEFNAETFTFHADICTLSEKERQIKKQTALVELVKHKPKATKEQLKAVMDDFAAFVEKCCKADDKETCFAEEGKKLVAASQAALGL
T2 sequence (P04626 23-1255): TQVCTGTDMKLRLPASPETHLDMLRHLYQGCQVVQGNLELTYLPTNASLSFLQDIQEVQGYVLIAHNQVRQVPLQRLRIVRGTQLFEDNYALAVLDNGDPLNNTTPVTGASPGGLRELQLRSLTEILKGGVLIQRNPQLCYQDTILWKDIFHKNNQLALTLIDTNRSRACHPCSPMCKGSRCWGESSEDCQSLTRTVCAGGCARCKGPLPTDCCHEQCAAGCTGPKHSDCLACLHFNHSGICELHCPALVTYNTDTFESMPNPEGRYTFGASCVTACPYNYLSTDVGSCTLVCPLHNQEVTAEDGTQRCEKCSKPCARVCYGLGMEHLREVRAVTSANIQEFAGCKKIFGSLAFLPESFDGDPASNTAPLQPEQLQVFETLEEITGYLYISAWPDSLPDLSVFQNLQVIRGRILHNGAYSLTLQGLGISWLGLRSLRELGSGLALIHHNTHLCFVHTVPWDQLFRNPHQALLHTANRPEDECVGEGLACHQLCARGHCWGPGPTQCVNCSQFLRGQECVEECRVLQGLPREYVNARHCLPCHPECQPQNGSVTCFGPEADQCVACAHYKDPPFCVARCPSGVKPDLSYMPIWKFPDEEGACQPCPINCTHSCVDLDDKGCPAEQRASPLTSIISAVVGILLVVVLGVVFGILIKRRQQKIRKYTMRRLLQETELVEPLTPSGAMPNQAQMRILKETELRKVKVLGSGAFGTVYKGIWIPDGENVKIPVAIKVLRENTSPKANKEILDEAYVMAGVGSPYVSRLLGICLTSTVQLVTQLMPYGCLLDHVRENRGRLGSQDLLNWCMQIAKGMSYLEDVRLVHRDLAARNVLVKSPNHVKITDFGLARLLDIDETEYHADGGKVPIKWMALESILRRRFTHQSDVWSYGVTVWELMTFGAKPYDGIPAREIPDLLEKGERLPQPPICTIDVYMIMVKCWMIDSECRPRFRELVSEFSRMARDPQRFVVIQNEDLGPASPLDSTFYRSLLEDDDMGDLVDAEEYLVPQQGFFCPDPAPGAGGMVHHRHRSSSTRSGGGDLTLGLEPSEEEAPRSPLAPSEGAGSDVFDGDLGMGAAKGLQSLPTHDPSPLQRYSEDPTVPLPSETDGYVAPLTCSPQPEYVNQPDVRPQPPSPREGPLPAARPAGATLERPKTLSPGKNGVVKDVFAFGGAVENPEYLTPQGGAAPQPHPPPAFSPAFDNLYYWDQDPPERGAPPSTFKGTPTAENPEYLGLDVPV
T1 sequence (P04626 23-1255): as above

## N=C(N)NCCC[C@@H]1NC(=O)[C@H]2CCCN2C(=O)[C@@H]2CCCN2C(=O)[C@H](CCCNC(=N)N)NC(=O)C[C@H](c2cccc3ccccc23)NC(=O)[C@H](Cc2ccccc2)NC(=O)[C@H](CC(=O)O)NC(=O)[C@H](CC(=O)O)NC(=O)[C@H](Cc2ccccc2)NC(=O)C[C@H](c2cccc3ccccc23)NC1=O [Compound 18] (cyclo(DDF[βAla(3R-(1-naphthyl))]RP[dP]R[βAla(3R-(1-naphthyl))]F))
NCI-H1975
  IC50: 4850 ± 217 nM
SKOV-3
  IC50: 853 ± 102 nM
[1]
  Inhibition of phosphorylation of HER2 compared to control: 41.6%
[2]
  Inhibition of phosphorylation of Akt compared to control: 24.7%
[3]
  Rate of tumor growth indicated by total flux compared with vehicle: decreased
HER2 phosphorylation
  HER2 phosphorylation in lung tumor tissue compared to control: inhibited HER2 phosphorylation to a significant extent
EGFR:HER2 dimerization
  EGFR:HER2 dimerization in lung tumor tissue (PLA red fluorescence): reduction in red fluorescence
HER2:HER3 dimerization
  HER2:HER3 dimerization in lung tumor tissue (PLA red fluorescence): reduction in red fluorescence
[4]; 6 mg/kg, three weeks of treatment
  Toxicity to organs (heart, liver, lung, kidney), H&E: no significant tissue damage or toxic effects
[4]
  Lung histology (H&E) compared to vehicle: remarkably fewer tumors and less inflammatory infiltration
[5]
  AUC(0-inf): ~459 µg·h/mL
  Vd: ~0.011 L
  clearance: ~0.00433 mL/min
[5]; 4 mg/kg, Terminal half-life
  half-life: ~42 h
[5]; 6 mg/kg, Terminal half-life
  half-life: ~46 h
[5]; Distribution half-life
  half-life: ~0.8 h
[5]; Terminal half-life in vivo
  half-life: > 40 h
A549 cells
  IC50: 868 ± 32 nM
[6]
  Change of circular dichroism spectra (backbone conformation) with temperature: did not show any significant change
pH 1
  Time after which concentration decreases significantly at pH 1: > 4 days
pH 7.5
  Stability at pH 7.5: stable for 30 days
[7]
  Vd peripheral: ~17 mL
[8]
  Compound in free form: ~22%
SKBR-3
  IC50: 194 ± 46 nM
MCF-7
  IC50: > 50000 nM
MCF-10A
  IC50: 40000 nM
HER2 expression
  Change in HER2 expression in xenograft tumor tissue: no
physchem
  remaining at 720 h: > 40%
In vitro [9]
  remaining at 6 h, 10 µM: > 80%
In vitro [10]
  remaining at 12 h, 10 µM: > 40%

## CS(=O)(=O)CCNCc1ccc(-c2ccc3ncnc(Nc4ccc(OCc5cccc(F)c5)c(Cl)c4)c3c2)o1 [lapatinib, reference compound]
[3]
  Rate of tumor growth indicated by total flux compared with vehicle: decreased
HER2 phosphorylation
  HER2 phosphorylation in lung tumor tissue compared to control: inhibited HER2 phosphorylation to a significant extent
[4]
  Lung histology (H&E) compared to vehicle: remarkably fewer tumors and less inflammatory infiltration
